Experimental data from ChEMBL document CHEMBL5055619, “Tetrahydrofuran-Based Transient Receptor Potential Ankyrin 1 (TRPA1) Antagonists: Ligand-Based Discovery, Activity in a Rodent Asthma Model, and Mechanism-of-Action via Cryogenic Electron Microscopy” (J Med Chem, 2021).
In brackets after ≈: the same amount, converted by molar mass. Activity calls are given as the source filed them. The rule behind the calls is not given here.

Legend:
[1] = target: T1, Short transient receptor potential channel 6 (Homo sapiens) (UniProt Q9Y210); test: Inhibition of human TRPC6 expressed in HEK293F cells assessed as inhibition of carbachol-induced calcium response up to 20 uM; format: cell-based
T1 sequence (whole entry): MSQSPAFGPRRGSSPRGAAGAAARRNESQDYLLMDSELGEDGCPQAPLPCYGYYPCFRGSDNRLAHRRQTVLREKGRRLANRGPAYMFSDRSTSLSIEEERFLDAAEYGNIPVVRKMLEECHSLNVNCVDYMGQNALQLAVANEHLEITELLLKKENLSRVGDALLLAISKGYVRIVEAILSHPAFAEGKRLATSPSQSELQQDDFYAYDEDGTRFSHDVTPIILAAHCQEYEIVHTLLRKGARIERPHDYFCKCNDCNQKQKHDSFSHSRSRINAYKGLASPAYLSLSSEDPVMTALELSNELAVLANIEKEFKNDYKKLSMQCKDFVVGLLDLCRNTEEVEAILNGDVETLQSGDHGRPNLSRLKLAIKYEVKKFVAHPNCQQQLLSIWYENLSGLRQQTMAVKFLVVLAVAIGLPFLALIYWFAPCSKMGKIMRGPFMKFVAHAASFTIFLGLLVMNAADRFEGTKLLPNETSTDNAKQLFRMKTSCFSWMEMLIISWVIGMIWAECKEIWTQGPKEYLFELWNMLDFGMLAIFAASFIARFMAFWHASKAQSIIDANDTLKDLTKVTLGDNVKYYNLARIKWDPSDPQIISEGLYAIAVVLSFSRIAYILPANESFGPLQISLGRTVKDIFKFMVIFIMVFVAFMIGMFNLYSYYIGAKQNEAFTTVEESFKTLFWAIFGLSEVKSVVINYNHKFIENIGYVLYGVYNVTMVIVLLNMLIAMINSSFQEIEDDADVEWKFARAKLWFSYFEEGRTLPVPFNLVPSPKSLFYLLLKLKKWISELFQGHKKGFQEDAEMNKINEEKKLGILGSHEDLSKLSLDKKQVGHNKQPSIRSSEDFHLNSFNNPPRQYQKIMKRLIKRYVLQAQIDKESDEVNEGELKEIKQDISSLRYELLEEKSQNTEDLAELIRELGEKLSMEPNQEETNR

[2] = target: Transient receptor potential cation channel subfamily A member 1 (Rattus norvegicus) (UniProt Q6RI86); test: In vivo antagonist activity at TRPA1 in AITC-induced rat pain model assessed as nocifensive behaviour at 93.41 ratio of free plasma concentration to IC50 for rat […]; format: functional, organism-based; conditions: concentration not given here
[3] = target: Transient receptor potential cation channel subfamily A member 1 (Rattus norvegicus) (UniProt Q6RI86); test: In vivo antagonist activity at TRPA1 in AITC-induced rat pain model assessed as nocifensive behaviour at 2.18 ratio of free plasma concentration to IC50 for rat […]; format: functional, organism-based; conditions: concentration not given here
[4] = target: Transient receptor potential cation channel subfamily A member 1 (Rattus norvegicus) (UniProt Q6RI86); test: In vivo antagonist activity at TRPA1 in AITC-induced rat pain model assessed as nocifensive behaviour at 7.95 ratio of free plasma concentration to IC50 for rat […]; format: functional, organism-based; conditions: concentration not given here
[5] = Metabolic stability in rat hepatocytes assessed as clearance; format: ADME, cell-based, Hepatocyte
Cytochrome P450 3A4 = Cytochrome P450 3A4 (Homo sapiens, UniProt P08684); test: Inhibition of CYP3A4 (unknown origin); format: ADME
Cytochrome P450 2D6 = Cytochrome P450 2D6 (Homo sapiens, UniProt P10635); test: Inhibition of CYP2D6 (unknown origin); format: ADME
[6] = Protein binding in human plasma; format: ADME, cell-free; conditions: read-out: PPB (converted)
hERG (KCNH2) = hERG (KCNH2) (Homo sapiens, UniProt Q12809); test: Inhibition of human ERG at 10 uM
[7] = Metabolic stability in rat liver microsomes assessed as clearance by LC/MS-MS analysis; format: ADME, Microsome
[8] = Volume of distribution at steady stare in rat at 1 mg/kg; format: ADME, organism-based; conditions: in vivo, read-out: Vdss
[9] = Protein binding in rat plasma; format: ADME, cell-free; conditions: read-out: PPB (converted)
[10] = Kinetic solubility of the compound; format: physicochemical; conditions: read-out: Kinetic_solubility
[11] = Antagonist activity at human TRPA1 expressed in CHO cells assessed as cinnamaldehyde-induced calcium flux measured after 90 mins by FLIPR assay; format: cell-based; conditions: 1.5 h
[12] = Metabolic stability in human liver microsomes assessed as clearance by LC/MS-MS analysis; format: ADME, Microsome
[13] = Half life in rat at 1 mg/kg; format: ADME, organism-based; conditions: in vivo
Rattus norvegicus = organism: Rattus norvegicus; test: Antinociceptive activity against AITC-induced rat pain model assessed as nocifensive behaviour by measuring unbound concentration; format: functional, organism-based
[14] = Clearance in rat at 1 mg/kg; format: ADME, organism-based; conditions: in vivo
[15] = Lipophilicity, logD of compound; format: physicochemical; conditions: octanol/water
Nav1.5 = Nav1.5 (Homo sapiens, UniProt Q14524); test: Inhibition of Nav1.5 (unknown origin) at 10 uM
[16] = target: Transient receptor potential cation channel subfamily M member 8 (Homo sapiens) (UniProt Q7Z2W7); test: Inhibition of human TRPM8 expressed in HEK293F cells assessed as inhibition of […]-induced calcium response up to 20 uM; format: cell-based
[17] = Antagonist activity at rat TRPA1 expressed in CHO cells assessed as cinnamaldehyde-induced calcium flux measured after 90 mins by FLIPR assay; format: cell-based; conditions: 1.5 h
[18] = Apparent permeability across apical to basolateral side in MDCK cells; format: ADME, cell-based, Canis lupus familiaris; conditions: dog, read-out: permeability
[19] = Inhibition of guinea pig TRPA1; parameters: species or system Cavia porcellus
[20] = target: Transient receptor potential cation channel subfamily A member 1 (Rattus norvegicus) (UniProt Q6RI86); test: In vivo antagonist activity at TRPA1 in AITC-induced rat pain model assessed as nocifensive behaviour at 24.47 ratio of free plasma concentration to IC50 for rat […]; format: functional, organism-based; conditions: concentration not given here
[21] = Oral bioavailability in rat at 1 mg/kg; format: ADME, organism-based; conditions: in vivo
[22] = Unbound Volume of distribution at steady state in rat at 1 mg/kg; format: ADME, organism-based; conditions: in vivo
Cav1.2 = Cav1.2 (Homo sapiens, UniProt Q13936); test: Inhibition of Cav1.2 (unknown origin) at 10 uM
Cavia porcellus = test: Antiinflammatory activity against ovalbumin-induced po dosed Hartley guinea pig asthma model assessed as reduction in BAL fluid infiltrate in the airway treated 2 hrs before and 8 hrs after 28 days of ovalbumin challenge measured after 24 hrs; format: functional, organism-based

Transient receptor potential cation channel subfamily A member 1 (Rattus norvegicus), sequence (Q6RI86 whole entry): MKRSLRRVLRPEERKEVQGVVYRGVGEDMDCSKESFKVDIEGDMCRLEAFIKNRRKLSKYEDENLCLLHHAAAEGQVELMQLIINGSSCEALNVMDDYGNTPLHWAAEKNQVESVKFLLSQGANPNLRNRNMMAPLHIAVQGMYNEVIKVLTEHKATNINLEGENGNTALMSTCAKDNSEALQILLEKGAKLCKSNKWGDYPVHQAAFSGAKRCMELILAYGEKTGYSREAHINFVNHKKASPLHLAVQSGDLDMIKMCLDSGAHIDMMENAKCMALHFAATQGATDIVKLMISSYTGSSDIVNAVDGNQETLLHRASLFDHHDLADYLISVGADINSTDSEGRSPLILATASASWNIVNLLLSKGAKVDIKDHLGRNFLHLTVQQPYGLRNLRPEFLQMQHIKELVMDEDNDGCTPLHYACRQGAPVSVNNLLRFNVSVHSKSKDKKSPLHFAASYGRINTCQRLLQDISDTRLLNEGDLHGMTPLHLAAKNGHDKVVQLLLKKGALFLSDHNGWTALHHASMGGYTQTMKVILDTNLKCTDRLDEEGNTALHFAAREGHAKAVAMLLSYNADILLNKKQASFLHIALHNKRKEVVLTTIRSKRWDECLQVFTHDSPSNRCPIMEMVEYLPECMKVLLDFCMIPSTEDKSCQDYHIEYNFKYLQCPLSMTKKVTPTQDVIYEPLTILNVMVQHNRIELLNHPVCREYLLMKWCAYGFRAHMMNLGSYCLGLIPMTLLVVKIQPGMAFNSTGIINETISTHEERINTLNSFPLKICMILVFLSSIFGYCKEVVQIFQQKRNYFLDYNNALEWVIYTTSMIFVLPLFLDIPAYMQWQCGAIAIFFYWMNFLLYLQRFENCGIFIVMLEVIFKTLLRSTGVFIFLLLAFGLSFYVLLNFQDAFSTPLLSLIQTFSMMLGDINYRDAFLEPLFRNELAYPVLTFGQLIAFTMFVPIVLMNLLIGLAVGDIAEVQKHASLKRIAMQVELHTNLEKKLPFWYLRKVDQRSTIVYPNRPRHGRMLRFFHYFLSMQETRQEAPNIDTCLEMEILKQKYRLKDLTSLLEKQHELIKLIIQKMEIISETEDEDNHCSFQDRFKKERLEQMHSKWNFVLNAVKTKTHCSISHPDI
Nav1.5, sequence (Q14524 whole entry): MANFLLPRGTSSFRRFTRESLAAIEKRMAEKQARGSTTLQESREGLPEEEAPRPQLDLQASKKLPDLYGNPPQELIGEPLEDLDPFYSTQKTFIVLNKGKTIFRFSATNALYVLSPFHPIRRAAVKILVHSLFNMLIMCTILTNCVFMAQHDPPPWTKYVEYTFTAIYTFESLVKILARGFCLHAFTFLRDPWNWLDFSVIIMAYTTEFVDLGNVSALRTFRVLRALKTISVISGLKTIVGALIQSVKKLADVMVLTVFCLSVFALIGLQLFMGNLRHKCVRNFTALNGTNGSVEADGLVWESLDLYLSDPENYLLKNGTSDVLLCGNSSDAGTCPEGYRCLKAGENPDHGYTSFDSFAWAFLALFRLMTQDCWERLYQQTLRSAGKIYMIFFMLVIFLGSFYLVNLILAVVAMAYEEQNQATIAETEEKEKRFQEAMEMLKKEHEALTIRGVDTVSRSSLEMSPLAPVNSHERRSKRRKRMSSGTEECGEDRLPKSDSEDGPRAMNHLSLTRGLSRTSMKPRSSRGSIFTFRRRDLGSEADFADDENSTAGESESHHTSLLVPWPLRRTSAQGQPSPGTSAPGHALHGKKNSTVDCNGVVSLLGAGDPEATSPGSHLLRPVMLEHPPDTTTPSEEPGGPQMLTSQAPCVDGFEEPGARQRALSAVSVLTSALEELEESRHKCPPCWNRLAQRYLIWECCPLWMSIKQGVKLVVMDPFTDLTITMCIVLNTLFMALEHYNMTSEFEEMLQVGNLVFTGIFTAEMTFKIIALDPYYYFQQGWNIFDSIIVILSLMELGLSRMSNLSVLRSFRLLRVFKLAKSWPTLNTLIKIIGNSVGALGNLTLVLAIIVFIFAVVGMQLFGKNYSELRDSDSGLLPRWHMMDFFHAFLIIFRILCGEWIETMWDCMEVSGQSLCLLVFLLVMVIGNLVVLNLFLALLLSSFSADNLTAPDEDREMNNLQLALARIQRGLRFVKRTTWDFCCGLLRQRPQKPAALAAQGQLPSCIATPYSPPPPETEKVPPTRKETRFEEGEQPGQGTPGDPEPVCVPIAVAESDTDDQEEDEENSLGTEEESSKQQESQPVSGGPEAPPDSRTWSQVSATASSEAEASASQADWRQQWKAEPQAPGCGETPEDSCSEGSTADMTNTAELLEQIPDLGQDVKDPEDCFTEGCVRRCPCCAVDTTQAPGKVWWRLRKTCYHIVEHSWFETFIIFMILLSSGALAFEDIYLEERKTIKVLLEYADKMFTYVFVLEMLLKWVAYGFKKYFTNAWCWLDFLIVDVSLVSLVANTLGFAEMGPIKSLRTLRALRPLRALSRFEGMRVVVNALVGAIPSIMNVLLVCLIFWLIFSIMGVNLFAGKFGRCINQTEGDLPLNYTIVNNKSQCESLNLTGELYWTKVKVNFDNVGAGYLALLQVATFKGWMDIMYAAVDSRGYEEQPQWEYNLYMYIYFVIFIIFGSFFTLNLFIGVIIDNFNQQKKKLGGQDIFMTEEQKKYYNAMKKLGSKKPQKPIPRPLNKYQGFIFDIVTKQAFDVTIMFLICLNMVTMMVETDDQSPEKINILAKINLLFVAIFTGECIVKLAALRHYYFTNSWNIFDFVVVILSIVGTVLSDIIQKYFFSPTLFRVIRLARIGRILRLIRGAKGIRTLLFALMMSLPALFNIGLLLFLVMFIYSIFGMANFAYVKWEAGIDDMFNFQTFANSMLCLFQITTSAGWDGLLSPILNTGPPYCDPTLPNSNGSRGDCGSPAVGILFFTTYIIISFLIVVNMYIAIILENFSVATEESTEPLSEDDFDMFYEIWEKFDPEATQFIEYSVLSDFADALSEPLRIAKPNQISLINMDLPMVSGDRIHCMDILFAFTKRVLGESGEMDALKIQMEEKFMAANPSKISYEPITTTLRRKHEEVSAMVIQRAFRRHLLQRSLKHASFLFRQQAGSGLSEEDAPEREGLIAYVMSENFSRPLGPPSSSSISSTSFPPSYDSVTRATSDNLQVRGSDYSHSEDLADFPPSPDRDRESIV
Transient receptor potential cation channel subfamily M member 8 (Homo sapiens), sequence (Q7Z2W7 whole entry, looked up): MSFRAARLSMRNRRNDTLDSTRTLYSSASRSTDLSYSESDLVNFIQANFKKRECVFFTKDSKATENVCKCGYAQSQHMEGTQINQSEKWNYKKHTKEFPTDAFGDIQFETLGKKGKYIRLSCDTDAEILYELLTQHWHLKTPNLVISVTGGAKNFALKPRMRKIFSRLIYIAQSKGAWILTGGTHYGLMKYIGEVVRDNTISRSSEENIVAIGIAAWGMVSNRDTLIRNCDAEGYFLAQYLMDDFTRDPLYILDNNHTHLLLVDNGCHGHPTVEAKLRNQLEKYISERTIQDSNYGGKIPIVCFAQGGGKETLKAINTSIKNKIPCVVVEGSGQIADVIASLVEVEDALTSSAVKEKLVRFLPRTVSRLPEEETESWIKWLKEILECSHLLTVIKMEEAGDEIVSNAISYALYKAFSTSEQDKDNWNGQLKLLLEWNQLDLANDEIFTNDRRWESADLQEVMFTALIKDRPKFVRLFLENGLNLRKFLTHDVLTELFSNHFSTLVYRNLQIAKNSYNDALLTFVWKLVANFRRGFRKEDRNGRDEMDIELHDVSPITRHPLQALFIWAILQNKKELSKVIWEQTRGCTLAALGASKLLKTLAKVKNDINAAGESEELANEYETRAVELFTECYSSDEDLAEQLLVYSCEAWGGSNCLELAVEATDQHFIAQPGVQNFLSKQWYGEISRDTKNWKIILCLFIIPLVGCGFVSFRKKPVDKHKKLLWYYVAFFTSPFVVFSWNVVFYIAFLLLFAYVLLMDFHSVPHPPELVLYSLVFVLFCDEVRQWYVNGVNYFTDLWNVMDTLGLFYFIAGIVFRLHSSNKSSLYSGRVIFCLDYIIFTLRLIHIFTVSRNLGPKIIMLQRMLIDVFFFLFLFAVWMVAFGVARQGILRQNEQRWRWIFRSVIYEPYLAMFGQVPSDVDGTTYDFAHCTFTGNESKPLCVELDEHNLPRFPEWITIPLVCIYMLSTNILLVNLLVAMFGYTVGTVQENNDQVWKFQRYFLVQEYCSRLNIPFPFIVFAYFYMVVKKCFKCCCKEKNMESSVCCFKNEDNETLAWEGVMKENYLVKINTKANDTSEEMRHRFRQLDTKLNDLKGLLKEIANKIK
Cytochrome P450 3A4, sequence (P08684 whole entry): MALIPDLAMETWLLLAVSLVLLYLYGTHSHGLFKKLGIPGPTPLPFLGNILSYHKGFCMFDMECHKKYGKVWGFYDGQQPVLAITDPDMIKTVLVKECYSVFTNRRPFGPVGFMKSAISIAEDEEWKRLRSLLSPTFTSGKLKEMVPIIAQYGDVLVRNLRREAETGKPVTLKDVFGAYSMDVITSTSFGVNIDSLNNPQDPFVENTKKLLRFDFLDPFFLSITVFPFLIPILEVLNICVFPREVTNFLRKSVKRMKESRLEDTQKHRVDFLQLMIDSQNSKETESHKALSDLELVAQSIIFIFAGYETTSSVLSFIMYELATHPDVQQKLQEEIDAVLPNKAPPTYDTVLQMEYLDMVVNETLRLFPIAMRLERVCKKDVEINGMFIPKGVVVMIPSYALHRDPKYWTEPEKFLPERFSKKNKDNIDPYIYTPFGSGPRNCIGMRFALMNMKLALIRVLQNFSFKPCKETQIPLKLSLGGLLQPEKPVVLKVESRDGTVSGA

With Cn1cnc2ncn(Cc3nc([C@@H]4CO[C@@H](c5ccc(Cl)cc5)C4)no3)c(=O)c21 the inhibition [1] was “inactive”, the inhibition [2] was 100% and the inhibition [3] was 30%. For the same molecule, the inhibition [4] was 53%, the CLhep predicted [5] was 29 mL/min/kg and the IC50 (Cytochrome P450 3A4) was over 10000 nM. For the same molecule, the IC50 (Cytochrome P450 2D6) was over 10000 nM, the fraction unbound [6] was 0.171 and the inhibition at 10 µM (hERG (KCNH2)) was under 15%. The CLhep predicted [7] was 14 mL/min/kg, the Vd [8] was 2.1 L/kg and the fraction unbound [9] was 0.246. For the same molecule, the solubility kinetic [10] was 43 µM (≈ 17.8 µg/mL), the IC50 [11] was 0.9 nM and the CLhep predicted [12] was 5 mL/min/kg. It also gave a half-life [13] of 1.6 h, an EC50 (Rattus norvegicus) of 53 nM and a clearance [14] of 17 mL/min/kg. For the same molecule, the logD [15] was 1.8, the inhibition at 10 µM (Nav1.5) was under 15% and the inhibition [16] was “inactive”. It also gave an IC50 [17] of 7.4 nM, a Papp A→B [18] of 16 ×10⁻⁶ cm/s and an IC50 [19] of 7.1 nM. The inhibition [20] was 80%, the bioavailability [21] was 90% and the Vduss [22] was 8.54 L/kg. The inhibition at 10 µM (Cav1.2) was under 15% and the Activity (Cavia porcellus) was “Dose-dependent effect”.
